Drawing on ChEMBL document CHEMBL1158732, “Intercedensides D-I, cytotoxic triterpene glycosides from the sea cucumber Mensamaria intercedens Lampert” (2005), this text covers EC50 for 5 compounds.

A short description of assay [1]: Cytotoxicity against human KBVIN cells by SRB method. The format is functional. The following applies: read-out: ED50 (the source's name).
A short description of assay [2]: Cytotoxicity against human U87MG cells by SRB method. Conditions: U-87 MG, read-out: ED50 (the source's name). The format is functional, U-87MG ATCC. On the technique in general: In SRB staining, fixed cells bind dye roughly in proportion to their protein.
In another assay the test system is CAKI-1. As to the kind of experiment: Cytotoxicity against human Caki1 cells by SRB method. Conditions: read-out: ED50 (the source's name). The assay is classed as functional.
For the next assay, the system named is KB. Briefly: Cytotoxicity against human KB cells by SRB method. The assay is classed as functional. Conditions: read-out: ED50 (the source's name).
A further assay relates to SK-MEL-2. As to the kind of experiment: Cytotoxicity against human SK-MEL-2 cells by SRB method. The assay is classed as functional. The following applies: read-out: ED50 (the source's name).
The subject of another assay is A549. Briefly: Cytotoxicity against human A549 cells by SRB method. The format is functional. Conditions: read-out: ED50 (the source's name).
In a further assay the test system is HCT-8. Briefly: Cytotoxicity against human HCT8 cells by SRB method. The format is functional. Conditions: read-out: ED50 (the source's name).
The next assay has as its system PC-3. Briefly: Cytotoxicity against human PC3 cells by SRB method. The assay is classed as functional. Conditions: read-out: ED50 (the source's name).
The test system of a further assay is 1A9. Briefly: Cytotoxicity against human 1A9 cells by SRB method. The assay is classed as functional. Conditions: read-out: ED50 (the source's name).
For the next assay, the system named is MCF7. Briefly: Cytotoxicity against human MCF7 cells by SRB method. The format is functional. Conditions: read-out: ED50 (the source's name).

The structures appear in SMILES notation. Where only a bound is given, the exact number is not on record here.

As for `CO[C@@H]1[C@@H](O)[C@H](O[C@@H]2[C@@H](O)[C@H](O[C@@H]3CO[C@@H](O[C@H]4[C@H](O[C@H]5CC[C@]6(C)[C@@H]7CC[C@]89C(=O)O[C@@](C)(/C=C\C=C(C)C)[C@@]8(O)[C@@H](OC(C)=O)C[C@@]9(C)C7=CC[C@H]6C5(C)C)OC[C@@H](OS(=O)(=O)[O-])[C@@H]4O)[C@H](O)[C@H]3O)OC[C@H]2O)O[C@H](CO)[C@H]1O.[Na+]` [LNTERCEDENSIDE E], the EC50 in assay [1] was determined as 2 µg/mL; in [2] it was 2.1 µg/mL; with CAKI-1 it was 1.6 µg/mL; in the assay with KB, 1.9 µg/mL; in the assay with SK-MEL-2, 1.6 µg/mL; with A549 it was 1.4 µg/mL. Moreover, the EC50 in the assay with HCT-8 was determined as 1.1 µg/mL; in the assay on PC-3, 1.7 µg/mL; in the assay with 1A9 it was 1.7 µg/mL; in the assay with MCF7 it was 1.4 µg/mL.
Take `CO[C@@H]1[C@@H](O)[C@H](O[C@@H]2[C@@H](O)[C@H](O[C@H]3[C@H](O)[C@@H](O)[C@H](O[C@H]4[C@H](O[C@H]5CC[C@]6(C)[C@@H]7CC[C@]89C(=O)O[C@@](C)(/C=C\C=C(C)C)[C@@]8(O)[C@@H](OC(C)=O)C[C@@]9(C)C7=CC[C@H]6C5(C)C)OC[C@@H](OS(=O)(=O)[O-])[C@@H]4O)O[C@@H]3C)OC[C@H]2O)O[C@H](CO)[C@H]1O.[Na+]` [LNTERCEDENSIDE H]: the EC50 in [1] amounted to 3.7 µg/mL; in assay [2], 3.2 µg/mL; in the assay on CAKI-1 it was 1 µg/mL; in the assay on KB it was 3 µg/mL; in the assay on SK-MEL-2, 2.2 µg/mL; in the assay on A549 it was 1.4 µg/mL. Also, the EC50 stood at 1.9 µg/mL in the assay with HCT-8, 2.2 µg/mL in the assay on PC-3, 0.96 µg/mL in the assay on 1A9 and 1.8 µg/mL in the assay on MCF7.
For `CO[C@@H]1[C@@H](O)[C@H](O[C@@H]2[C@@H](O)[C@H](O[C@H]3[C@H](O)[C@@H](O)[C@H](O[C@H]4[C@H](O[C@H]5CC[C@]6(C)[C@@H]7CC[C@]89C(=O)O[C@@](C)(/C=C\C=C(C)C)[C@@]8(O)[C@@H](OC(C)=O)C[C@@]9(C)C7=CC[C@H]6C5(C)C)OC[C@@H](OS(=O)(=O)[O-])[C@@H]4O)O[C@@H]3CO)OC[C@H]2O)O[C@H](CO)[C@H]1O.[Na+]` [LNTERCEDENSIDE D], the EC50 was 4.3 µg/mL in assay [1]; 4.1 µg/mL in [2]; more than 5 µg/mL in the assay with CAKI-1; 3.7 µg/mL with KB; 4.2 µg/mL in the assay on SK-MEL-2; 1.8 µg/mL in the assay on A549. The EC50 turned out to be 2.9 µg/mL with HCT-8, 3.3 µg/mL in the assay on PC-3, 2.4 µg/mL in the assay on 1A9 and 2.4 µg/mL in the assay on MCF7.
As to `CO[C@@H]1[C@@H](O)[C@H](O[C@@H]2[C@@H](O)[C@H](O[C@H]3[C@H](O)[C@@H](O)[C@H](O[C@H]4[C@H](O[C@H]5CC[C@]6(C)[C@@H]7CC[C@]89C(=O)O[C@@](C)(CCC=C(C)C)[C@@]8(O)[C@@H](OC(C)=O)C[C@@]9(C)C7=CC[C@H]6C5(C)C)OC[C@@H](OS(=O)(=O)[O-])[C@@H]4O)O[C@@H]3CO)OC[C@H]2O)O[C@H](CO)[C@H]1O.[Na+]` [INTERCEDENSIDE F], the EC50 in assay [1] is 3.2 µg/mL; in assay [2] it was 3.3 µg/mL; in the assay on CAKI-1 it was 1.7 µg/mL; in the assay on KB, 3.2 µg/mL; with SK-MEL-2, 2.1 µg/mL; with A549 it was 1.7 µg/mL. In addition, the EC50 came to 1.9 µg/mL in the assay on HCT-8, 2.3 µg/mL in the assay on PC-3, 1.7 µg/mL in the assay on 1A9 and 2.1 µg/mL in the assay on MCF7.
As for `CO[C@@H]1[C@@H](O)[C@H](O[C@@H]2[C@@H](O)[C@H](O[C@@H]3CO[C@@H](O[C@H]4[C@H](O[C@H]5CC[C@]6(C)[C@@H]7CC[C@]89C(=O)O[C@@](C)(/C=C\C=C(C)C)C8[C@@H](OC(C)=O)C[C@@]9(C)C7=CC[C@H]6C5(C)C)OC[C@@H](OS(=O)(=O)[O-])[C@@H]4O)[C@H](O)[C@H]3O)OC[C@H]2O)O[C@H](CO)[C@H]1O.[Na+]` (stereo not given in full) [LNTERCEDENSIDE G], the EC50 in assay [1] amounted to 3.9 µg/mL; in [2] it was 3.3 µg/mL; in the assay with CAKI-1, 3.8 µg/mL; in the assay with KB it was 3.3 µg/mL; in the assay with SK-MEL-2, 2.4 µg/mL; in the assay on A549, 1.6 µg/mL. In addition, the EC50 in the assay on HCT-8 stood at 1.8 µg/mL; in the assay with PC-3, 2 µg/mL; in the assay on 1A9, 1.9 µg/mL; with MCF7, 2 µg/mL.
